Here are results for 17 compounds from patent US20220153734A1, “Pyrazolopyridine Compounds For IRE1 Inhibition” (Optikira, LLC, priority 2019, published 2022).

pIC50: −log10 of the molar value.

For test [1], the system named is ARPE-19 cells stably expressing XBP1 (a.a. 1-376). Briefly: Cellular XBP1 splicing assay (NanoLuc luciferase, thapsigargin). Format: cell-based. Conditions: thapsigargin 150 nM. As for the experimental part: Cellular XBP1 Splicing Assay
ARPE-19 cells stably expressing XBP1 (a.a. 1-376) with nano-luciferase gene sequence linked so it is in frame when XBP1 is spliced, were cultured in F12 media, 10% FBS, 0.044% sodium bicarbonate, 150 μg/ml hygromycin B and seeded for assays at 5,000 cells in 384 well plates in culture media without hygromycin B and incubated at 37° C./5% CO2. After overnight incubation test compounds were added to the cell plate in a 10-point ½ log dilution series in duplicate (final DMSO concentration 0.117%). After further incubation of 30 minutes thapsigargin was added (final concentration 150 nM) and then another 4 hour incubation. A NanoLuc luciferase assay (Promega) was used according to the manufacturer's instructions to detect the luciferase and luminescence measured on a luminometer (EnVision, PerkinElmer). IC50 values calculated by fitting a sigmoidal curve to percent inhibition of control of compound concentration.

The next test has as its target T1, IRE1α (Homo sapiens, UniProt O75460).
T1 construct: purchased Signal Chem E31-11G
Briefly: Biochemical assay: inhibition of RNase activity of IRE1α. Conditions: enzyme 0.325 nM, substrate 100 nM, 20 minutes. How it is done: Biochemical Assay: Inhibition of RNase Activity of IRE1α
The RNase reactions were performed in 384 well black ProxiPlate-384 Plus plates (PERKIN Elmer) using 50 mM Tris assay buffer with 0.5 mM MgCl2, 10 mM KCl, 0.03% Tween, 2 mM DTT and 1% DMSO. Test compounds were prepared on the day of assay and dispensed using D300 digital dispenser as a 10-point ½ log dilution series in duplicate, normalized to a final DMSO concentration of […]. Test compounds were pre-incubated for 30 min at room temperature with IRE1α kinase (E31-11G from Signal Chem) in 2.5 μL of assay buffer. Then 2.5 μl of assay buffer containing substrate (5′ Alexa Fluor 647-rCrArU rGrUrC rCrGrC rArGrC rGrCrArUrG-Iowa Black RQ quencher 3′) added, giving a final concentration of enzyme of 0.325 nM and of substrate of 100 nM. After 20 minutes incubation at room temperature the reactions were stopped by added 5 μL of 5M urea, incubated at room temperature for 10 minutes and fluorescence measured on a plate reader (EnVision, PerkinElmer). IC50 values calculated by fitting a sigmoidal curve to percent inhibition of control versus compound concentration.

T1 sequence (O75460 468-977 limits assumed): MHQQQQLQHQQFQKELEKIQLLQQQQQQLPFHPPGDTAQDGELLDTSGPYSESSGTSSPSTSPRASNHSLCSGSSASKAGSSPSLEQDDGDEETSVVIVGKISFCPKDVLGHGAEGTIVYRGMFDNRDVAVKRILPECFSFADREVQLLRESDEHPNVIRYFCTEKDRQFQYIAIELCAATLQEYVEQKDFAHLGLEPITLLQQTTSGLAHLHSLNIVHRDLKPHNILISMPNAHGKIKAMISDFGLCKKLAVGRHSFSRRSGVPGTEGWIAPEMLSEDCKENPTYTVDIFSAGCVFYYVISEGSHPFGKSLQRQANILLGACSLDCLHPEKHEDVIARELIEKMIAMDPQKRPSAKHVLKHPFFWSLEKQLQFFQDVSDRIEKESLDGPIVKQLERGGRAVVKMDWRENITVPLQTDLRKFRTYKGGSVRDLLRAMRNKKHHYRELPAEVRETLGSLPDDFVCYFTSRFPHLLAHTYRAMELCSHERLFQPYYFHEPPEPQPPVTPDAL

Turning to `Nc1ncc(C2=CCC(NC3COC3)CC2)c2c1c(-c1ccc(NS(=O)(=O)Cc3ccccc3Cl)c(F)c1)nn2C1CC1` (single isomer, unassigned) [Compound B23, N-(4-(4-amino-1-cyclopropyl-7-(4-(oxetan-3-ylamino)cyclohex-1-en-1-yl)-1H-pyrazolo[4,3-c]pyridin-3-yl)-2-fluorophenyl)-1-(2-chlorophenyl)methanesulfonamide], the pIC50 in test [1] (4 hour) is 7.34; against IRE1α it was 8.51.
Consider `CCn1nc(-c2ccc(NS(=O)(=O)Cc3ccccc3Cl)cc2)c2c(N)ncc(C3=CCC(NC4COC4)CC3)c21` (single isomer, unassigned) [Compound B24, N-(4-(4-amino-1-ethyl-7-(4-(oxetan-3-ylamino)cyclohex-1-en-1-yl)-1H-pyrazolo[4,3-c]pyridin-3-yl)phenyl)-1-(2-chlorophenyl)methanesulfonamide], for which the pIC50 in test [1] (4 hour) was 6.24; at IRE1α, 7.28.
Consider `CCn1nc(-c2ccc(NS(=O)(=O)Cc3ccccc3F)c(F)c2)c2c(N)ncc(C3=CCC(NC4COC4)CC3)c21` (single isomer, unassigned) [Compound B27, N-(4-(4-amino-1-ethyl-7-(4-(oxetan-3-ylamino)cyclohex-1-en-1-yl)-1H-pyrazolo[4,3-c]pyridin-3-yl)-2-fluorophenyl)-1-(2-fluorophenyl)methanesulfonamide], for which the pIC50 in test [1] (4 hour) was 7.11; on IRE1α, 8.23.
As to `CCn1nc(-c2ccc(NS(=O)(=O)Cc3ccccc3Cl)c(F)c2)c2c(N)ncc(C3=CCC(NC4COC4)CC3)c21` (single isomer, unassigned) [Compound B29, N-(4-(4-amino-1-ethyl-7-(4-(oxetan-3-ylamino)cyclohex-1-en-1-yl)-1H-pyrazolo[4,3-c]pyridin-3-yl)-2-fluorophenyl)-1-(2-chlorophenyl)methanesulfonamide], the pIC50 is 7.17 in test [1] (4 hour) and 8.13 against IRE1α.
On the same counts, the results for `CCn1nc(-c2ccc(NS(=O)(=O)c3ccccc3F)c(F)c2)c2c(N)ncc(C3=CCC(NC4COC4)CC3)c21` (single isomer, unassigned) [Compound B33, N-(4-(4-amino-1-ethyl-7-(4-(oxetan-3-ylamino)cyclohex-1-en-1-yl)-1H-pyrazolo[4,3-c]pyridin-3-yl)-2-fluorophenyl)-2-fluorobenzenesulfonamide] are 7.00 and 7.22.
The like results for `CCn1nc(-c2ccc(NS(=O)(=O)c3ccccc3F)c(F)c2)c2c(N)ncc(C3=CCC(NC4COC4)CC3)c21` (single isomer, unassigned) [Compound B34, N-(4-(4-amino-1-ethyl-7-(4-(oxetan-3-ylamino)cyclohex-1-en-1-yl)-1H-pyrazolo[4,3-c]pyridin-3-yl)-2-fluorophenyl)-2-fluorobenzenesulfonamide] were, in that order, 6.40 and 7.00.
On the same counts, the results for `CCn1nc(-c2ccc(NS(=O)(=O)c3cc(C)ccc3F)c(F)c2)c2c(N)ncc(C3=CCC(NC4COC4)CC3)c21` (single isomer, unassigned) [Compound B35, N-(4-(4-amino-1-ethyl-7-(4-(oxetan-3-ylamino)cyclohex-1-en-1-yl)-1H-pyrazolo[4,3-c]pyridin-3-yl)-2-fluorophenyl)-2-fluoro-5-methylbenzenesulfonamide] are 7.28 and 7.85.
For the compound `CCn1nc(-c2ccc(NS(=O)(=O)c3cc(C)ccc3F)c(F)c2)c2c(N)ncc(C3=CCC(NC4COC4)CC3)c21` (single isomer, unassigned) [Compound B36, N-(4-(4-amino-1-ethyl-7-(4-(oxetan-3-ylamino)cyclohex-1-en-1-yl)-1H-pyrazolo[4,3-c]pyridin-3-yl)-2-fluorophenyl)-2-fluoro-5-methylbenzenesulfonamide], the pIC50 in test [1] (4 hour) is 6.68; against IRE1α it was 7.29.
The like results for `CCn1nc(-c2ccc(NS(=O)(=O)c3cc(Cl)ccc3F)c(F)c2)c2c(N)ncc(C3=CCC(NC4COC4)CC3)c21` (single isomer, unassigned) [Compound B38, N-(4-(4-amino-1-ethyl-7-(4-(oxetan-3-ylamino)cyclohex-1-en-1-yl)-1H-pyrazolo[4,3-c]pyridin-3-yl)-2-fluorophenyl)-5-chloro-2-fluorobenzenesulfonamide] were, in that order, 7.01 and 8.25.
The like results for `CC(CF)NC1CC=C(c2cnc(N)c3c(-c4ccc(NS(=O)(=O)c5ccccc5Cl)c(F)c4)nn(C(C)C)c23)CC1` (single isomer, unassigned) [Compound B40, N-(4-(4-amino-7-(4-((1-fluoropropan-2-yl)amino)cyclohex-1-en-1-yl)-1-isopropyl-1H-pyrazolo[4,3-c]pyridin-3-yl)-2-fluorophenyl)-2-chlorobenzenesulfonamide] were, in that order, 7.17 and 7.85.
On the same counts, the results for `CC(CF)NC1CC=C(c2cnc(N)c3c(-c4ccc(NS(=O)(=O)c5ccccc5Cl)c(F)c4)nn(C(C)C)c23)CC1` (single isomer, unassigned) [Compound B41, N-(4-(4-amino-7-(4-((1-fluoropropan-2-yl)amino)cyclohex-1-en-1-yl)-1-isopropyl-1H-pyrazolo[4,3-c]pyridin-3-yl)-2-fluorophenyl)-2-chlorobenzenesulfonamide] are 8.00 and 8.21.
On to `CC(F)CNC1CC=C(c2cnc(N)c3c(-c4ccc(NS(=O)(=O)Cc5ccccc5Cl)c(F)c4)nn(C(C)C)c23)CC1` (single isomer, unassigned) [Compound B42, N-(4-(4-amino-7-(4-((2-fluoropropyl)amino)cyclohex-1-en-1-yl)-1-isopropyl-1H-pyrazolo[4,3-c]pyridin-3-yl)-2-fluorophenyl)-1-(2-chlorophenyl)methanesulfonamide], for which the pIC50 is 7.74 in test [1] (4 hour) and 8.77 against IRE1α.
The like results for `CC(F)CNC1CC=C(c2cnc(N)c3c(-c4ccc(NS(=O)(=O)Cc5ccccc5Cl)c(F)c4)nn(C(C)C)c23)CC1` (single isomer, unassigned) [Compound B43, N-(4-(4-amino-7-(4-((2-fluoropropyl)amino)cyclohex-1-en-1-yl)-1-isopropyl-1H-pyrazolo[4,3-c]pyridin-3-yl)-2-fluorophenyl)-1-(2-chlorophenyl)methanesulfonamide] were, in that order, 8.29 and 9.30.
The like results for `CC(CF)NC1CC=C(c2cnc(N)c3c(-c4ccc(NS(=O)(=O)Cc5ccccc5Cl)c(F)c4)nn(C(C)C)c23)CC1` (single isomer, unassigned) [Compound B44, N-(4-(4-amino-7-(4-((1-fluoropropan-2-yl)amino)cyclohex-1-en-1-yl)-1-isopropyl-1H-pyrazolo[4,3-c]pyridin-3-yl)-2-fluorophenyl)-1-(2-chlorophenyl)methanesulfonamide] were, in that order, 8.00 and 8.80.
The like results for `CC(CF)NC1CC=C(c2cnc(N)c3c(-c4ccc(NS(=O)(=O)Cc5ccccc5Cl)c(F)c4)nn(C(C)C)c23)CC1` (single isomer, unassigned) [Compound B45, N-(4-(4-amino-7-(4-((1-fluoropropan-2-yl)amino)cyclohex-1-en-1-yl)-14sopropyl-1H-pyrazolo[4,3-c]pyridin-3-yl)-2-fluorophenyl)-1-(2-chlorophenyl)methanesulfonamide] were, in that order, 7.33 and 8.47.
For `CC(F)CNC1CC=C(c2cnc(N)c3c(-c4ccc(NS(=O)(=O)c5ccccc5Cl)c(F)c4)nn(C(C)C)c23)CC1` (single isomer, unassigned) [Compound B46, N-(4-(4-amino-7-(4-((2-fluoropropyl)amino)cyclohex-1-en-1-yl)-1-isopropyl-1H-pyrazolo[4,3-c]pyridin-3-yl)-2-fluorophenyl)-2-chlorobenzenesulfonamide], the pIC50 in test [1] (Homo sapiens, ARPE-19, 4 h) is 7.66; at IRE1α, 8.33.
Take `CC(F)CNC1CC=C(c2cnc(N)c3c(-c4ccc(NS(=O)(=O)c5ccccc5Cl)c(F)c4)nn(C(C)C)c23)CC1` (single isomer, unassigned) [Compound B47, N-(4-(4-amino-7-(4-((2-fluoropropyl)amino)cyclohex-1-en-1-yl)-1-isopropyl-1H-pyrazolo[4,3-c]pyridin-3-yl)-2-fluorophenyl)-2-chlorobenzenesulfonamide]: the pIC50 in test [1] (4 hour) was 7.77; against IRE1α, 8.35.
